Reference: article PMC7655065, “Effect of 3-subsitution of quinolinehydroxamic acids on selectivity of histone deacetylase isoforms” (Journal of Enzyme Inhibition and Medicinal Chemistry, 2020)
Where two headings read alike, the source gives them in different places.

Legend:
HDAC6 [1] = system: HDAC6; parameters: method as in PMID 29304284; details: printed in Figure 2, previously synthesised compound; cited from earlier work
A549 cells [2] = system: A549 cells; parameters: method as in PMID 27344487; details: reference compounds, read-out: Antiproliferative activity IC50, A549; cited from earlier work
A549 cells [3] = test: Western blot analysis of apoptosis and DNA damage markers; format: cell-based, human; details: A549 cells treated for 48 h; 0.25, 5 and 10 µM
Method: buffer (20 mMTris-HCl pH 7.5, 150 mM NaCl, 1 mM Na2EDTA, 1 mM EGTA, 1% NP-40, 1% sodium deoxycholate, 0.1% SDS, 2.5 mM β-glycerylphosphate, 1 mM Na4P2O7, 5 mM NaF, 1 mM Na3VO4 and protease inhibitor cocktail from Millipore) on ice for 30 min following by centrifugation at 13000 rpm for 30 min. Protein concentrations were determined and equal amounts of protein were separated by 8–15% sodium dodecyl sulphate-polyacrylamide gel electrophoresis (SDS–PAGE) and transferred to poly(vinylidene difluoride) (PVDF) membranes. Membranes were immunoblotted with specific antibodies overnight at 4 °C and then applied to appropriate horseradish peroxidase-conjugated anti-mouse or anti-rabbit IgG secondary antibodies for 1 h at RT. Signals were detected using an enhanced chemiluminescence (Amersham, Buckinghamshire, UK).

HDAC2 = biological target: T1, HDAC2 (Homo sapiens, UniProt Q92769); test: HDAC biochemical assay (Fluor-de-Lys), HDAC2; details: for Selectivity ratio of HDAC2 over HDAC6: IC50 HDAC2 / IC50 HDAC6; for IC50: human recombinant HDAC2, dash = no inhibition or activity that could not be fitted to an IC50 curve
T1 construct: EurofinPanlabs (Taipei, Taiwan)

HDAC6 [4] = biological target: T2, HDAC6 (Homo sapiens, UniProt Q9UBN7); test: HDAC biochemical assay (Fluor-de-Lys), HDAC6; details: human recombinant HDAC6
T2 construct: EurofinPanlabs (Taipei, Taiwan)
T2 sequence (Q9UBN7 1-1215): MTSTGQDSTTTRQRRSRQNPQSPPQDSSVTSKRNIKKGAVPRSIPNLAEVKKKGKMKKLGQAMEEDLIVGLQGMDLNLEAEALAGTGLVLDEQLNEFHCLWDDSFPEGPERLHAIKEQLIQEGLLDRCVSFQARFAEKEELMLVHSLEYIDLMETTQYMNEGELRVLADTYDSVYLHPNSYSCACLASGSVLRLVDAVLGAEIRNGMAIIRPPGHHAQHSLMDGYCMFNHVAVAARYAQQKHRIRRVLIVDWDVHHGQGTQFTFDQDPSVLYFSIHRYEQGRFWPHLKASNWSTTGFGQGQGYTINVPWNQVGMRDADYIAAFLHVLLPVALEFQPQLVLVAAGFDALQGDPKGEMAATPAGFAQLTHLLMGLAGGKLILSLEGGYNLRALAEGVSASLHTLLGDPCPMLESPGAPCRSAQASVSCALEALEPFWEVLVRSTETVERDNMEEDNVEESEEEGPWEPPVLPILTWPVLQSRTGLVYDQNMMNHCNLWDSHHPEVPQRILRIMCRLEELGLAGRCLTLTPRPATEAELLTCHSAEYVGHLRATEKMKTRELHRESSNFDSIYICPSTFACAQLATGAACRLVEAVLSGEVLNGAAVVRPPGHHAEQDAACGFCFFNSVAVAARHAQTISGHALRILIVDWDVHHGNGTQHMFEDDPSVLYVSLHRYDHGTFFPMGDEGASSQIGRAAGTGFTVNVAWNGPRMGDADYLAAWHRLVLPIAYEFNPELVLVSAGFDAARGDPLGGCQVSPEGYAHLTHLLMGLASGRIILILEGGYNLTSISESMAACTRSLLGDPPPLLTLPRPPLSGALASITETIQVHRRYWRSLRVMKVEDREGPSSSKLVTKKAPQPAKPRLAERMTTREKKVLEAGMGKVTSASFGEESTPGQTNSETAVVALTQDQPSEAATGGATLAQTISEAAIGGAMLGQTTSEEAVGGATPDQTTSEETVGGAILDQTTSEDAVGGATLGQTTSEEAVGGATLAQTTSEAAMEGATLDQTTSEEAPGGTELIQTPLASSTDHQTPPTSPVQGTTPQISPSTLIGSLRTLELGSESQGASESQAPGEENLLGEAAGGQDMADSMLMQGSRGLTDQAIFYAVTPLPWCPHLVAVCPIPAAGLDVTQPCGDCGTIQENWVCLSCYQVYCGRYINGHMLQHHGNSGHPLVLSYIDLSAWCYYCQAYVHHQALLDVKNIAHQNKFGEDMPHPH

A549 cells [5] = test: Sulforhodamine B antiproliferative assay, A549; format: cell-based; details: Homo sapiens
Method: (§1) All human cancer cells were maintained in RPMI 1640 medium supplemented with 10% FBS and penicillin (100 units/ml)/streptomycin (100 µg/ml)/amphotericin B (0.25 µg/ml). All cells were maintained in humidified air containing 5% CO2 at 37 °C and cultured every 2–3 days. […]
(§2) Cells were seeded at the density of 5000 cells/well into 96-plate overnight. Basal cells were fixed with 10% trichloroacetic acid (TCA) to represent the cell population at the time of compound addition (T0). After additional incubation of DMSO (C) or different doses of test compounds (Tx) for 48 h, cells were fixed with 10% TCA and stained with SRB at 0.4% (w/v) in 1% AcOH. Unbound SRB was washed out using 1% AcOH and SRB bound cells were solubilised with 10 mM Trizma base. The absorbance was read at a wavelength of 515 nm. The 50% growth inhibition (GI50) was calculated by 100 − [(Tx – T0)/(C – T0)] × 100.

HDAC8 = biological target: T3, HDAC8 (Homo sapiens, UniProt Q9BY41); test: HDAC biochemical assay (Fluor-de-Lys), HDAC8; details: for Selectivity ratio of HDAC8 over HDAC6: IC50 HDAC8 / IC50 HDAC6; for IC50: human recombinant HDAC8
T3 construct: EurofinPanlabs (Taipei, Taiwan)
T3 sequence (Q9BY41 1-377): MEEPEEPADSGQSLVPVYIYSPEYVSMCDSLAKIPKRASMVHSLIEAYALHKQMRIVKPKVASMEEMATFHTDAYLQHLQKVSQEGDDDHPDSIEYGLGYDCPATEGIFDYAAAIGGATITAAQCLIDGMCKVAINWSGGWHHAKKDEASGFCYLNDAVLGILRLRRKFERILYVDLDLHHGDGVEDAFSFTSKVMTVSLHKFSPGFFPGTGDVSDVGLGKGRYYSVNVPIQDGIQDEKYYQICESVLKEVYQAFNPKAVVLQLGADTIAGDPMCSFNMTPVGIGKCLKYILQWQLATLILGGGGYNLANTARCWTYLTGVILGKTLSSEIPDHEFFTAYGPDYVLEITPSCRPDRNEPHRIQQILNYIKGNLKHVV

HDAC1 = biological target: T4, HDAC1 (Homo sapiens, UniProt Q13547); test: HDAC biochemical assay (Fluor-de-Lys), HDAC1; details: for Selectivity ratio of HDAC1 over HDAC6: IC50 HDAC1 / IC50 HDAC6; for IC50: human recombinant HDAC1, values > 10 μM estimated from best curve fitting
T4 construct: EurofinPanlabs (Taipei, Taiwan)

A549 cells [6] = test: Flow cytometry cell cycle analysis; format: cell-based, human; details: A549 cells, 0.25, 0.5, 10 μM, 48 h, propidium iodide
Method: Briefly, A549 cells were starved with EBM-2 medium overnight and were subsequently replenished with EGM-2 medium with or without 17, 25, and 26 (0.25, 0.5, 10 µM) for 48 h. After being trypsinized and fixed in ice-cold 75% MeOH for 1 h at −20 °C, A549 cells were washed with PBS and resuspended in 0.2 ml DNA extraction buffer (0.2 M Na2HPO4, 0.1 M citric acid; pH 7.8) for 30 min. Then the cells were stained with propidium iodide solution (PI; 100 µg/ml RNase, 80 µg/ml propidium iodide, 0.1% Triton X-100) in PBS. FACScan flow cytometry was utilised to determine cell cycle distribution, and data analysis was performed with CellQuest software (BD Biosciences).

HCT116 cells [7] = test: Sulforhodamine B antiproliferative assay, HCT116; format: cell-based; details: Homo sapiens, HCT-116, SRB, 48 h, values > 10 μM estimated from best curve fitting
Method: as §1, §2

HCT116 cells [8] = system: HCT116 cells; parameters: method as in PMID 27344487; details: reference compounds, read-out: Antiproliferative activity IC50, HCT116; cited from earlier work
[9] = A549 cells, SRB, 48 h, values > 10 μM estimated from best curve fitting, read-out: Antiproliferative activity IC50, A549

T1 sequence (Q92769 whole entry): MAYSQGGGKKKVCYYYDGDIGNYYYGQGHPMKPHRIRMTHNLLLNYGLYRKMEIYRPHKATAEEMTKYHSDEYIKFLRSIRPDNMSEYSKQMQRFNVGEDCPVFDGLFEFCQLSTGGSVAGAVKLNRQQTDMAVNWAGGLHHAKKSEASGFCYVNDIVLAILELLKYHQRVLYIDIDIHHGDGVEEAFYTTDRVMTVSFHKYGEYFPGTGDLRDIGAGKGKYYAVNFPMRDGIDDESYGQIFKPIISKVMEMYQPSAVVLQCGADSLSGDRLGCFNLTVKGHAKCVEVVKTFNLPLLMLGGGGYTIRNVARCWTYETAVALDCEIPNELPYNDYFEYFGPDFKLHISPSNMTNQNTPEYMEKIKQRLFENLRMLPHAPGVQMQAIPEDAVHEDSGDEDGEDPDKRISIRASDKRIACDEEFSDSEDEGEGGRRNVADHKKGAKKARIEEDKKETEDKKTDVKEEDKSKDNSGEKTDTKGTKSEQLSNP
T4 sequence (Q13547 whole entry): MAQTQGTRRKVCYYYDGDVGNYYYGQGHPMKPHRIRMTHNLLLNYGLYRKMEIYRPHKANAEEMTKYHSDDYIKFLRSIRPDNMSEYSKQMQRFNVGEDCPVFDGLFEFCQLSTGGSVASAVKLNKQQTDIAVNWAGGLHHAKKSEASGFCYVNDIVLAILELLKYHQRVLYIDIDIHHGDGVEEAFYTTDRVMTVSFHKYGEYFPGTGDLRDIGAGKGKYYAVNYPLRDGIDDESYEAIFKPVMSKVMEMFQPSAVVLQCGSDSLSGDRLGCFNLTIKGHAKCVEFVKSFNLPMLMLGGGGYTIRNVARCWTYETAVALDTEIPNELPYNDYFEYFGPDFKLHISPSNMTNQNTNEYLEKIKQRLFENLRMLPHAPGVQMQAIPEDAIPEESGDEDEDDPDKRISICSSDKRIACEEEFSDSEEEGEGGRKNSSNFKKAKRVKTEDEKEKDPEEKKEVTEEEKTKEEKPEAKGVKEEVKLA

| SMILES | IC50 (A549 cells [2]) | Selectivity ratio of HDAC2 over HDAC6 (HDAC2) | IC50 (HDAC2) | IC50 (HDAC6 [4]) | IC50 (A549 cells [5]; [9]) | Selectivity ratio of HDAC8 over HDAC6 (HDAC8) | IC50 (HDAC8) | Selectivity ratio of HDAC1 over HDAC6 (HDAC1) | IC50 (HDAC1) | IC50 (HCT116 cells [7]) | also measured |
| --- | --- | --- | --- | --- | --- | --- | --- | --- | --- | --- | --- |
| O=C(NO)c1ccc(CNc2cccc3cccnc23)cc1 [Compound 13, N-hydroxy-4-((quinolin-8-ylamino)methyl)benzamide] |  |  |  |  |  |  |  |  |  |  | IC50 (HDAC6 [1]): 0.29 nM |
| O=C(CCCCCCC(=O)Nc1ccccc1)NO [SAHA, N^1-hydroxy-N^8-phenyloctanediamide] | 1020 ± 150 nM |  |  |  |  |  |  |  |  |  |  |
| O=C(NO)c1ccc(CNc2cccc3cc(-c4cccnc4)cnc23)cc1 [Compound 25, N-Hydroxy-4-(((3-(pyridin-3-yl)quinolin-8-yl)amino)methyl)benzamide] |  | (276) | 1310 nM | 4.75 nM | 1290 ± 410 nM | (379) | 1800 nM | (552) | 2620 nM | 1610 ± 220 nM | Caspase 3, 8, and 9 cleavage (Western blot) (A549 cells [3]): dose dependent increases in caspase 3, 8, and 9 cleavage; IC50 (A549 cells [5]; range over both cell lines (A549 and HCT116) and both compounds, abstract, read-out: IC50 values against A549 and HCT116 cells): 1290 to 2130 nM; Cell cycle distribution, sub G1 population (A549 cells [6]): concentration dependent accumulation of A549 cells in sub G1 phase |
| O=C(/C=C/c1cccc(S(=O)(=O)Nc2ccccc2)c1)NO [PXD101, (E)-N-hydroxy-3–(3-(N-phenylsulfamoyl)phenyl)acrylamide] | 780 ± 70 nM |  |  |  |  |  |  |  |  |  | IC50 (HCT116 cells [8]): 130 ± 10 nM |
| O=C(NO)c1ccc(CNc2cccc3cc(-c4ccccc4)cnc23)cc1 [Compound 18, N-Hydroxy-4-[(3-phenyl-quinolin-8-ylamino)-methyl]-benzamide] |  | (> 515) | > 10000 nM | 19.4 nM | 4970 ± 60 nM | (355) | 6880 nM | (273) | 5300 nM | 4700 ± 380 nM | melting point: 172.7 to 173.2 °C |
